Values of other authors in patent US20040229940A1, “Analeptic and antidepressant combinations” (Cephalon Inc, priority 2003, published 2004).

Assays:
narcoleptic canine = settings: narcolepsy model, narcoleptic canine (Shelton et al, 1995)
[1] = tested on: English bulldog sleep disordered breathing model; settings: sleep apnea model, English bulldog (Panckeri et al, 1996)
cats = cats (Lin et al., 1992)
rats = rats (Touret et al., 1995; Edgar and Seidel, 1997)
canines = canines (Shelton et al., 1995)
non-human primates = non-human primates (Hernant et al, 1991)
[2] = tested on: major depressive disorder; settings: at 6 weeks

NC(=O)C[S+]([O-])C(c1ccccc1)c1ccccc1 (stereo not shown) [Modafinil, 2-(benzhydrylsulfinyl) acetamide]
promotes wakefulness: wakefulness (narcoleptic canine) | wakefulness [1] | wakefulness (cats) | wakefulness (rats) | wakefulness (canines) | wakefulness (non-human primates)

CNCCC(Oc1ccc(C(F)(F)F)cc1)c1ccccc1 (stereo not shown) [fluoxetine]
about 50%: response [2]
